We go through twelve compounds from US8188082B2, “5,6,7,8-tetrahydro-imidazo[1,5-α]pyrazine derivatives” (Actelion Pharmaceuticals Ltd., priority 2006, dated 2012).

Broadly, the IC50 is the midpoint of a concentration-inhibition curve.

Experiment [1] has as its target T1, human orexin-1 receptor (Homo sapiens, UniProt O43613).
T1 construct: expressed in transfected cells; host or cells: CHO cells (G418 selection)
T1 sequence (O43613 1-425): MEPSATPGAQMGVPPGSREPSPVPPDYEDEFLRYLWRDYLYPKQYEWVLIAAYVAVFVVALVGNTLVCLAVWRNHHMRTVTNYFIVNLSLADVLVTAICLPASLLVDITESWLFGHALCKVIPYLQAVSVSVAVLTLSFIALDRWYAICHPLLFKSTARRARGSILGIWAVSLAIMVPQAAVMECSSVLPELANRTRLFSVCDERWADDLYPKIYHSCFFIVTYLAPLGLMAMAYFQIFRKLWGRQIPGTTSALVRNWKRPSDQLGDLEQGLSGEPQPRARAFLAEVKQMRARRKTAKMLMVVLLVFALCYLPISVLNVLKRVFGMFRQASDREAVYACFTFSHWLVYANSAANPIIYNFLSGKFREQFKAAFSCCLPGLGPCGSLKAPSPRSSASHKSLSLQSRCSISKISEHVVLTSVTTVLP
In words: Intracellular calcium measurements (FLIPR), orexin receptor antagonistic activity, OX1. Type of experiment: cell-based. The note with it: CHO cells expressing human orexin-1 receptor; 10 nM orexin-A as agonist. On the procedure: (§1) Intracellular Calcium Measurements:
(§2) Chinese hamster ovary (CHO) cells expressing the human orexin-1 receptor and the human orexin-2 receptor, respectively, are grown in culture medium (Ham F-12 with L-Glutamine) containing 300 μg/ml G418, 100 U/ml penicillin, 100 μg/ml streptomycin and 10% inactivated fetal calf serum (FCS). The cells are seeded at 80,000 cells/well into 96-well black clear bottom sterile plates (Costar) which have been precoated with 1% gelatine in Hanks' Balanced Salt Solution (HBSS). All reagents are from Gibco BRL. The seeded plates are incubated overnight at 37° C. in 5% CO2.
(§3) Human orexin-A as an agonist is prepared as 1 mM stock solution in MeOH:water (1:1), diluted in HBSS containing 0.1% bovine serum albumin (BSA) and 2 mM HEPES for use in the assay at a final concentration of 10 nM.
(§4) Antagonists are prepared as 10 mM stock solution in DMSO, then diluted in 96-well plates, first in DMSO, then in HBSS containing 0.1% bovine serum albumin (BSA) and 2 mM HEPES.
(§5) On the day of the assay, 100 μl of loading medium (HBSS containing 1% FCS, 2 mM HEPES, 5 mM probenecid (Sigma) and 3 μM of the fluorescent calcium indicator fluo-3 AM (1 mM stock solution in DMSO with 10% pluronic acid) (Molecular Probes) is added to each well.
(§6) The 96-well plates are incubated for 60 min at 37° C. in 5% CO2. The loading solution is then aspirated and cells are washed 3 times with 200 μl HBSS containing 2.5 mM probenecid, 0.1% BSA, 2 mM HEPES. 100 μl of that same buffer is left in each well.
(§7) Within the Fluorescent Imaging Plate Reader (FLIPR, Molecular Devices), antagonists are added to the plate in a volume of 50 μl, incubated for 20 min and finally 100 μl of agonist is added. Fluorescence is measured for each well at 1 second intervals, and the height of each fluorescence peak is compared to the height of the fluorescence peak induced by 10 nM orexin-A with buffer in place of antagonist. For each antagonist, IC50 value (the concentration of compound needed to inhibit 50% of the agonistic response) is determined.
(Calcium assays in cells follow changes in intracellular calcium, usually with a dye or a luminescent sensor.)

Experiment [2] concerns the target T2, human orexin-2 receptor (Homo sapiens, UniProt O43614).
T2 construct: expressed in transfected cells; host or cells: CHO cells (G418 selection)
T2 sequence (O43614 1-444): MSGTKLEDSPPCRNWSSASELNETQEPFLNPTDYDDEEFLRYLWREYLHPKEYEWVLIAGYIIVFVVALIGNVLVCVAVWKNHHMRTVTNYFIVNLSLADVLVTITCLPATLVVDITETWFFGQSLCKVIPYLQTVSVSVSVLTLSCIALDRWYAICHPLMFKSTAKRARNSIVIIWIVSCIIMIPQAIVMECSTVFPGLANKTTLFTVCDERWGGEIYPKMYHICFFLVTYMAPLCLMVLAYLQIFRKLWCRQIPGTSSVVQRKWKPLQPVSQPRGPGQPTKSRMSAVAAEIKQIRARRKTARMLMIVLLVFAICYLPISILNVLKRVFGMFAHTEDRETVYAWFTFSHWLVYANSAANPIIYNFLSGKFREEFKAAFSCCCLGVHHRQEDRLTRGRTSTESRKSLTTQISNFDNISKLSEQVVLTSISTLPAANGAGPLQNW
In words: Intracellular calcium measurements (FLIPR), orexin receptor antagonistic activity, OX2. Conditions: CHO cells expressing human orexin-2 receptor; 10 nM orexin-A as agonist. In kind it is cell-based. On the procedure:
as §1, §2, §3, §4, §5, §6, §7

As for `CNC(=O)[C@@H](c1ccccc1)N1CCn2c(C)nc(C)c2C1CCc1ccc(OC)cc1OC` (mixture of isomers) [25 (8S; 2′R)/(8R; 2′R)], the values for the concentration for half-maximal inhibition (IC50) in experiment [1] and in experiment [2] were at least 10000 nM and 115 nM, respectively.
In the same order, the values of `CCc1nc(Cl)c2n1CCN([C@@H](C(=O)NC)c1ccccc1)[C@H]2CCc1cc(F)c(OC)c(F)c1` [36 (8S; 2′R), (R)-2′-{1-chloro-(S)-8-[2-(3,5-difluoro-4-methoxy-phenyl)-ethyl]-3-ethyl-5,6-dihydro-8H-imidazo[1,5-a]pyrazin-7-yl}-N-methyl-2′-phenyl-acetamide] are 17 nM and 14 nM.
In the same order, the values of `CNC(=O)[C@@H](c1ccccc1)N1CCn2c(C)nc(C3CC3)c2[C@@H]1CCc1ccc(C(F)(F)F)cc1` [46 (8S; 2′R), (R)-2′-{1-cyclopropyl-3-methyl-(S)-8-[2-(4-trifluoromethyl-phenyl)-ethyl]-5,6-dihydro-8H-imidazo[1,5-a]pyrazin-7-yl}-N-methyl-2′-phenyl-acetamide] are 762 nM and 21 nM.
For `C=Cc1nc(CC)n2c1[C@H](CCc1ccc(C(F)(F)F)cc1)N([C@@H](C(=O)NC)c1ccccc1)CC2` [28 (8S; 2′R), (R)-2′-{3-ethyl-(S)-8-[2-(4-trifluoromethyl-phenyl)-ethyl]-1-vinyl-5,6-dihydro-8H-imidazo[1,5-a]pyrazin-7-yl}-N-methyl-2′-phenyl-acetamide] the same measures were 176 nM and 29 nM.
On to `CNC(=O)[C@@H](c1ccccc1)N1CCn2c(C)nc(Cl)c2[C@H]1CCc1cc(F)c(C)c(F)c1` [10 (8R; 2′R), (R)-2′-{1-chloro-(R)-8-[2-(3,5-difluoro-4-methyl-phenyl)-ethyl]-3-methyl-5,6-dihydro-8H-imidazo[1,5-a]pyrazin-7-yl}-N-methyl-2′-phenyl-acetamide], for which the results for the IC50 in experiment [1] and in experiment [2] were 72 nM and 14 nM, respectively.
For `CCc1nc(OC)c2n1CCN([C@@H](C(=O)NC)c1ccccc1)[C@H]2CCc1ccc(C)c(C)c1` [27 (8S; 2′R), (R)-2′-{(S)-8-[2-(3,4-dimethyl-phenyl)-ethyl]-3-ethyl-1-methoxy-5,6-dihydro-8H-imidazo[1,5-a]pyrazin-7-yl}-N-methyl-2′-phenyl-acetamide] the same measures were 5 nM and 4 nM.
For `CCc1nc(C(F)(F)F)c2n1CCN([C@@H](C(=O)NC)c1ccccc1)[C@H]2CCc1ccc(C(F)(F)F)cc1` [15 (8S; 2′R), (R)-2′-{3-ethyl-1-trifluoromethyl-(S)-8-[2-(4-trifluoromethyl-phenyl)-ethyl]-5,6-dihydro-8H-imidazo[1,5-a]pyrazin-7-yl}-N-methyl-2′-phenyl-acetamide] the same measures were 807 nM and 15 nM.
`CNC(=O)[C@@H](c1ccccc1)N1CCn2c(C)nc(C#N)c2[C@@H]1CCc1ccc(C(F)(F)F)c(F)c1` [43 (8S; 2′R), (R)-2′-{1-cyano-(S)-8-[2-(3-fluoro-4-trifluoromethyl-phenyl)-ethyl]-3-methyl-5,6-dihydro-8H-imidazo[1,5-a]pyrazin-7-yl}-N-methyl-2′-phenyl-acetamide]: the concentration for half-maximal inhibition (IC50) stood at 538 nM in experiment [1] and 14 nM in experiment [2].
For `CNC(=O)[C@@H](c1ccccc1)N1CCn2c(Cl)nc(Cl)c2C1CCc1ccc(C(F)(F)F)cc1` (mixture of isomers) [33 (8S; 2′R)/(8R; 2′R)] the same measures were 279 nM and 11 nM.
For `CCc1nc(Cl)c2n1CCN([C@@H](C(=O)NC)c1ccccc1)[C@H]2COc1cccc(C(F)(F)F)c1` [53 (8R; 2′R), (R)-2′-[1-chloro-3-ethyl-(R)-8-(3-trifluoromethyl-phenoxymethyl)-5,6-dihydro-8H-imidazo[1,5-a]pyrazin-7-yl]-N-methyl-2′-phenyl-acetamide] the same measures were 412 nM and 2 nM.
Take `CNC(=O)[C@@H](c1ccccc1)N1CCn2c(C)nc(Cl)c2C1CCc1ccc(C)c(C)c1` (mixture of isomers) [11 (8S; 2′R)/(8R; 2′R)]: the results for the IC50 in experiment [1] and in experiment [2] were 36 nM and 11 nM, respectively.
In the same order, the values of `CNC(=O)[C@@H](c1ccccc1)N1CCn2c(COC)nc(Cl)c2C1CCc1ccc(C(F)(F)F)cc1` (mixture of isomers) [16 (8S; 2′R)/(8R; 2′R)] are 2060 nM and 33 nM.
